Data set [1] relates to HCT116 cell lines. Further details: method as in PMID 30798514. Particulars: previous study; cited from earlier work.
Data set [2] relates to A375 melanoma. The experiment in a line: MTT viability assay, A375. It counts as cell-based, human. Particulars: 72 h of treatment. How it is done: (§1) The following cell lines were used in this study: human cell lines (A375 melanoma, MCF-7 breast cancer, HCT116 colorectal carcinoma, and A2780 ovarian cancer. These cell lines were purchased from the American Type Culture Collection (Rockville, MD, USA). The A2780 cells were cultivated in DMEM, while all other cell lines were cultivated in the HEPES-buffered RPMI-1640 medium. The cell culture mediums were supplemented with penicillin (1000 units/mL), streptomycin (100 µg/mL), and 10% inactivated FBS. All cells were cultivated at 37 °C in a humidified atmosphere with 5% CO2.
(§2) Two colorimetric viability assays were applied, namely 3-(4,5-dimethylthiazol-2-yl)-2,5-diphenyl-2H-tetrazolium bromide (MTT) and crystal-violet (CV) (Sigma Aldrich, St. Louis, MO, USA), according to the previous studies. The cells were seeded overnight in 96-well plates: A2780 and MRC-5 8 × 10^3 cells/well, HCT 116 6 × 10^3 cells/well, A375 5 × 10^3 cells/well, and MCF-7 at 10 × 10^3 cells/well [67]. The standard solutions of complexes were prepared in DMSO. All cells were treated with the following concentrations of investigated compounds: 100, 50, 25, 12.5, 6.25, 3.125, and 1.56 µM. After 72 h of treatment, viability assays were conducted. For the CV assay, cells were fixed using 4% paraformaldehyde (PFA) for 20 min at room temperature after being washed once with PBS. Afterward, they were stained with 0.2% CV solution for 25 min. This procedure was followed by washing with double distilled water. The cells were left to dry overnight at room temperature. In the last step, 33% acetic acid was used to dissolve the remaining dye. The other test included incubating cells in MTT solution (0.5 mg L^−1 in cell culture medium) for 20 min at 37 °C in a humid environment with 5% CO2. […] A plate reader (Spectromax, Molecular Devices, San Jose, CA, USA) was utilized for the absorption measurements at 570 and 670 (background) nm. The cell viability was calculated as the percentage compared to untreated cells, and the mean was obtained using a four-parametric logistic function. […]
A general note: Formazan colour is commonly taken as a measure of viable cells.

Data set [3] concerns MCF-7 breast cancer. In words: MTT viability assay, MCF-7. In kind it is cell-based, human. The note with it: MCF-7, MTT, 72 h of treatment. How it is done:
as §1
(§3) Two colorimetric viability assays were applied, namely 3-(4,5-dimethylthiazol-2-yl)-2,5-diphenyl-2H-tetrazolium bromide (MTT) and crystal-violet (CV) (Sigma Aldrich, St. Louis, MO, USA), according to the previous studies. The cells were seeded overnight in 96-well plates: A2780 and MRC-5 8 × 10^3 cells/well, HCT 116 6 × 10^3 cells/well, A375 5 × 10^3 cells/well, and MCF-7 at 10 × 10^3 cells/well [67]. The standard solutions of complexes were prepared in DMSO. All cells were treated with the following concentrations of investigated compounds: 100, 50, 25, 12.5, 6.25, 3.125, and 1.56 µM. After 72 h of treatment, viability assays were conducted. For the CV assay, cells were fixed using 4% paraformaldehyde (PFA) for 20 min at room temperature after being washed once with PBS. Afterward, they were stained with 0.2% CV solution for 25 min. This procedure was followed by washing with double distilled water. The cells were left to dry overnight at room temperature. In the last step, 33% acetic acid was used to dissolve the remaining dye. The other test included incubating cells in MTT solution (0.5 mg L^−1 in cell culture medium) for […] at 37 °C in a humid environment with 5% CO2. After one hour, the MTT solution was discarded, and the formed formazan was dissolved using DMSO. A plate reader (Spectromax, Molecular Devices, San Jose, CA, USA) was utilized for the absorption measurements at 570 and 670 (background) nm. The cell viability was calculated as the percentage compared to untreated cells, and the mean was obtained using a four-parametric logistic function. Each of the three independent experiments was performed in quadruplicate.

The nature of data set [4]: Qualitative solubility in solvents. It counts as physicochemical.
In data set [5] the target is T1, bovine serum albumin (BSA) (Bos taurus, UniProt P02769).
T1 construct: purchased
T1 sequence (P02769 25-607): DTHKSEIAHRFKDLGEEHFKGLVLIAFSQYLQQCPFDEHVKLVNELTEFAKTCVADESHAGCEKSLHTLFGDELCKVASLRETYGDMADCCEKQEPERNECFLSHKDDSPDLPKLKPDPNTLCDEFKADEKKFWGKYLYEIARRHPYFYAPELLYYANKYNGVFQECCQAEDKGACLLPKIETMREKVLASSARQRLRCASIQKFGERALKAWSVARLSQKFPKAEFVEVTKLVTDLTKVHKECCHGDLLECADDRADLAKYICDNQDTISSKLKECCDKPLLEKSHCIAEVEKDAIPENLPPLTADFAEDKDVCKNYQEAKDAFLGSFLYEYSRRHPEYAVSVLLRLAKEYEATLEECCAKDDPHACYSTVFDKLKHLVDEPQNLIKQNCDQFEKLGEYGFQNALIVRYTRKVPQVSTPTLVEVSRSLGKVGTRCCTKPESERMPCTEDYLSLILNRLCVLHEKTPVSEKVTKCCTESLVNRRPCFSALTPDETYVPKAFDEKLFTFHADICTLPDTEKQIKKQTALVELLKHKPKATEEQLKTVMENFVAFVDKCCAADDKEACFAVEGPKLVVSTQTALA
The experiment in a line: Spectrofluorometric titration of BSA (fluorescence quenching, double log Stern–Volmer, van't Hoff). It counts as binding. As to the method: (§4) The protein binding affinity of obtained compounds was analyzed by the spectrofluorometric titration of BSA and HSA solution by the solution containing obtained compounds. The mixture was irradiated by light with a wavelength of 295 (BSA) and 280 nm (HSA). Both proteins contain fluorescent amino acids within active pockets, and the binding process can be monitored through the change in intensity and position of the emitted light maxima. The fluorescent emission depends on the chemical environment of amino acids. The measurements for each complex were repeated at three temperatures to allow the determination of the thermodynamic parameters of binding.
(§5) The spectrofluorometric measurements were used to investigate the binding process of obtained compounds towards bovine serum albumin (BSA) and human serum albumin (HSA) on the Cary Eclipse MY2048CH03 instrument. The scan rate was 600 nm min^−1, and both slits were 5 nm. The excitation wavelengths were 295 nm and 280 nm for BSA and HSA, respectively. These energies are characteristics of the protein structure’s tryptophan and other fluorescent amino acid residues. The emission spectra were recorded between 310 and 500 nm. The concentration of proteins was held constant at 5 × 10^−6 M in […] phosphate buffer saline (pH = 7.4). The concentration of complexes changed from 1 to 10 × 10^−6 M, and the emission spectrum was recorded two minutes after the addition of compounds. The data were analyzed by the double log Stern–Volmer quenching equation (Equation (2)):(2) logI0−I/I=logKb+nlogQ
In the previous equation, I0 and I are the fluorescent emission intensities of BSA/HSA without and with added metal complexes, respectively; Kb is the binding constant; n is the number of binding places; and [Q] is the concentration of quenchers (metal complexes). […]

Data set [6] concerns HCT116 colorectal carcinoma. The experiment in a line: CV (crystal-violet) viability assay, HCT116. It counts as cell-based, human. The note with it: 72 h of treatment. How it is done:
as §1, §3

In data set [7] the target is T2, human serum albumin (HSA) (Homo sapiens, UniProt P02768).
T2 construct: purchased
T2 sequence (P02768 25-609): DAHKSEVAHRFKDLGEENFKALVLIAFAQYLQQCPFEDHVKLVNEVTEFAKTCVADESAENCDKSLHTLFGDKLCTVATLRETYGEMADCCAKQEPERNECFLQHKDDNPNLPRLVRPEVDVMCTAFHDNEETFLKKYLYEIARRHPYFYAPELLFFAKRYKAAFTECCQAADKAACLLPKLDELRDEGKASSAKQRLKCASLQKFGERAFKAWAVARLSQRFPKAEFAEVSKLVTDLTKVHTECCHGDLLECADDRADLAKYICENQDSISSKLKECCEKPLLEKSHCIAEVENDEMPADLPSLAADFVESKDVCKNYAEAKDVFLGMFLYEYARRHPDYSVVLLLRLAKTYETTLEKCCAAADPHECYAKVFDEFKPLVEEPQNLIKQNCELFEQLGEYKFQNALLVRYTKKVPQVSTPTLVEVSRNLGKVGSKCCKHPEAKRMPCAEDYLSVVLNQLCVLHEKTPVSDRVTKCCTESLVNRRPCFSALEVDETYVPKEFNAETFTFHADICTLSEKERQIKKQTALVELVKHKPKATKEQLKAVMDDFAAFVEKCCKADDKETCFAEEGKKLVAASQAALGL
The experiment in a line: Spectrofluorometric titration of HSA (fluorescence quenching, double log Stern–Volmer, van't Hoff). In kind it is binding. As to the method: as §4
The binding affinity of obtained complexes was also examined towards HSA as a transport protein relevant to the human body. The temperature range was changed to reflect better temperatures common for humans (32–42 °C). The representative example of the HAS fluorescence measurements is shown in Figure 9, along with van’t Hoff’s plot. The decrease in the fluorescence intensity emission was also dependent on the concentration of complexes. On average, the binding constants were similar to the ones calculated for BSA. […] High correlation coefficients, between 0.990 and 0.998, were calculated for the dependency described by Equation (2). The number of binding places is 1, proving that the same type of complexes were formed between investigated compounds and HAS as previously shown for BSA.
as §5
In the previous equation, I0 and I are the fluorescent emission intensities of BSA/HSA without and with added metal complexes, respectively; Kb is the binding constant; n is the number of binding places; and [Q] is the concentration of quenchers (metal complexes).
The changes in enthalpy and entropy of the binding process were determined from the vant’t Hoff equation (Equation (3)) following the measurements at three temperatures (27, 32, and 37 °C):(3) lnKb=−∆Hb/RT+∆Sb/R

For data set [8], the system named is A375 melanoma. The experiment in a line: CV (crystal-violet) viability assay, A375. The note with it: 72 h of treatment. In kind it is cell-based, human. How it is done:
as §1, §2

In data set [9] the test system is A2780 ovarian cancer. In words: MTT viability assay, A2780. Particulars: 72 h of treatment. In kind it is cell-based, human. As to the method: as §1, §3
In data set [10] the test system is A2780 ovarian cancer. The experiment in a line: CV (crystal-violet) viability assay, A2780. In kind it is cell-based, human. The note with it: 72 h of treatment. How it is done: as §1, §3
Data set [11] has as its system HCT116 colorectal carcinoma. The experiment in a line: MTT viability assay, HCT116. In kind it is cell-based, human. Particulars: 72 h of treatment. How it is done: as §1, §3
Data set [12] concerns MCF-7 breast cancer. In words: CV (crystal-violet) viability assay, MCF-7. In kind it is cell-based, human. The note with it: MCF-7, CV, 72 h of treatment. As to the method:
as §1, §3

Setting [13] is: van't Hoff over three temperatures.

The values below come from article PMC10573062, “Synthesis, Structural Characterization, Cytotoxicity, and Protein/DNA Binding Properties of Pyridoxylidene-Aminoguanidine-Metal (Fe, Co, Zn, Cu) Complexes” (International Journal of Molecular Sciences, 2023).

Where only a bound is given, the exact number is not on record here.

With `O=S(=O)([O-])[O-].[Cu+2]` [CuSO4], the “activity towards HCT116 cell line” value in data set [1] is “almost completely inactive”.
On to [Zn(PLAG)(SO4)(H2O)]^.H2O [Zn-PLAG], for which the IC50 in data set [2], in data set [3], in data set [6], in [8], in data set [9] and in [10] was above 100 µM throughout. Besides, the IC50 in data set [11] and in [12] was above 100 µM in each case. For the same molecule, the solubility entry in data set [4] (in chloroform, dimethylsulfoxide, dimethylformamide, acetone, and acetonitrile) is “soluble”; in data set [4] (in diethyl ether and toluene), “insoluble”; in data set [4] (in methanol, ethanol, phosphate buffer saline, and water) it was “moderately soluble”. Also, the “Kb (binding constant)” value in [5] (27 °C) came to 58000 M⁻¹; in [5] (32 °C) it was 124000 M⁻¹; in [5] (35 °C), 208000 M⁻¹. The “n (number of binding places)” value in data set [5] (27 °C) came out at 1.13; in data set [5] (32 °C), 1.09; in data set [5] (35 °C), 1.03; in [7] (32 °C) it was 1.11; in [7] (37 °C), 0.99; in data set [7] (42 °C), 0.95. Also, the ΔGb is -27.45 kJ/mol in data set [5] (27 °C); -29.56 kJ/mol in data set [5] (32 °C); -31.66 kJ/mol in data set [5] (35 °C); -28.65 kJ/mol in data set [7] (32 °C); -28.86 kJ/mol in data set [7] (37 °C); -29.07 kJ/mol in data set [7] (42 °C). In data set [5] (setting [13]), the ΔHb was 98.78 kJ/mol. This molecule also yielded a ΔSb in data set [5] (setting [13]) of 420.77 J mol^−1 K^−1.

Broadly, the IC50 is the concentration at which inhibition is half-maximal. A high value points to a need for much substance.
